Legend:
[1] = biological target: monomeric E290A/R298A 3CL^pro double mutant (Severe acute respiratory syndrome coronavirus 2, UniProt P0DTD1, E3553A/R3561A); format: binding, SARS-CoV-2
[2] = biological target: dimeric C145A 3CL^pro single mutant (Severe acute respiratory syndrome coronavirus 2, UniProt P0DTD1, C3408A); format: binding, SARS-CoV-2

CC(C)(C)c1ccc(N(C(=O)c2c[nH]cn2)[C@@H](C(=O)NC2CCCCC2)c2cccnc2)cc1 [X77]
binding detectable [1]: not
binding heat detected [2]: No measurable heat was detected

— paper PMC13347698 (Analytical Chemistry, 2026)
